# According to PubChem BioAssay (NCI):
#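 All cell lines were grown in 96-well plates and treated with compound for 48 hours. TGI is the concentration that stops growth completely.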
# Columns and labels:
# Experiment in all cases: DTP human tumour cell line panel, 48 h
# IGROV1 ovarian = system: IGROV1 ovarian
# SNB-78 CNS = system: SNB-78 CNS
# K-562 leukemia = system: K-562 leukemia
# NCI-H460 lung = system: NCI-H460 lung
# HL-60(TB) leukemia = system: HL-60(TB) leukemia
# MALME-3M melanoma = system: MALME-3M melanoma
# EKVX NSCLC = system: EKVX NSCLC
# SW-620 colon = system: SW-620 colon
# LOX IMVI melanoma = system: LOX IMVI melanoma
# OVCAR-3 ovarian = system: OVCAR-3 ovarian
# KM12 colon = system: KM12 colon
# TK-10 renal = system: TK-10 renal
# SR leukemia = system: SR leukemia
# SNB-75 CNS = system: SNB-75 CNS
# NCI-H226 lung = system: NCI-H226 lung
# MCF7 breast = system: MCF7 breast
# UACC-257 melanoma = system: UACC-257 melanoma
# HCC-2998 colon = system: HCC-2998 colon
# HOP-92 NSCLC = system: HOP-92 NSCLC
# T-47D breast = system: T-47D breast
SMILES,TGI (IGROV1 ovarian) [µM],TGI (SNB-78 CNS) [µM],TGI (K-562 leukemia) [µM],TGI (NCI-H460 lung) [µM],TGI (HL-60(TB) leukemia) [µM],TGI (MALME-3M melanoma) [µM],TGI (EKVX NSCLC) [µM],TGI (SW-620 colon) [µM],TGI (LOX IMVI melanoma) [µM],TGI (OVCAR-3 ovarian) [µM],TGI (KM12 colon) [µM],TGI (TK-10 renal) [µM],TGI (SR leukemia) [µM],TGI (SNB-75 CNS) [µM],TGI (NCI-H226 lung) [µM],TGI (MCF7 breast) [µM],TGI (UACC-257 melanoma) [µM],TGI (HCC-2998 colon) [µM],TGI (HOP-92 NSCLC) [µM],TGI (T-47D breast) [µM]
O=C1C[C@@H]2[C@@H](c3ccccc3)[C@@H]3C(=O)c4ccccc4NC(=O)[C@H]3[C@]2(O)c2ccccc2N1,> 100,> 100,> 100,> 100,> 100,> 100,> 100,> 100,> 100,> 100,> 100,> 100,> 100,> 100,> 100,,,,,
CSC1(C(=O)O)C2CCC3C2CCC31 (stereo unspecified),> 100,,> 100,> 100,> 100,> 100,> 100,> 100,> 100,> 100,> 100,> 100,> 100,> 100,> 100,> 100,> 100,> 100,> 100,> 100
O=C1C=C(NCC(c2ccccc2)c2ccccc2)C(=O)c2ncccc21,8.82,,4.1,1.92,3.32,3.4,7.83,,5.23,3.32,16.5,51.5,4.87,2.77,9.71,3.33,2.45,2.12,12.9,13.4
CC(=O)c1c2c(cc3c1CC1(Cc4cc5c(cc4C1)C(=O)CCC5)C3)CCCC2 (stereo unspecified),> 30.8,,4.79,67.2,4.17,> 100,> 87.2,> 100,> 53.5,54.3,78.4,> 100,5.53,> 26.1,41.8,18.7,15.4,97.9,40.1,> 81.7
Cc1cccc(Nc2nc3ccccc3nc2NS(=O)(=O)c2ccccc2)c1,> 100,,> 100,51.4,37.8,> 100,> 100,> 100,> 100,80,> 100,> 100,> 100,63.8,> 100,> 100,> 100,6.93,63.7,> 100
NCCCC(N=Cc1nc(-c2ccccc2)oc1O)C(=O)O (stereo unspecified),> 100,> 100,> 100,> 100,> 100,> 100,> 100,> 100,> 100,> 100,,> 100,> 100,> 100,> 100,,> 100,> 100,> 100,
C[C@H](c1ccccc1)n1c(N)c(-c2nc3ccccc3s2)c2ccc([N+](=O)[O-])cc2c1=O,98.9,,4.25,> 61.5,36.6,56.8,> 100,> 100,> 66.6,> 100,61.2,> 100,13,> 91.7,> 63.1,52.2,76.9,> 85.1,5.81,17.6
CC(=O)N1C(CCc2ccccc2)CC(C)(C=O)C1Cc1ccc(O[Si](C(C)C)(C(C)C)C(C)C)cc1 (stereo unspecified),19.1,,> 26.1,9.05,4.42,27.3,15.8,14.4,3.85,11.8,11.8,13.7,> 21.7,18.4,19.9,5.26,10.6,4.62,23.7,12.9
O=C1N/C(=N\N=C\c2ccccc2)C2(CCCCC2)O1,> 100,,> 100,> 100,> 100,> 100,> 100,> 100,> 100,> 100,> 100,> 100,76.4,88.5,> 100,> 100,> 100,> 100,> 100,> 100
CN1C(=O)[C@H](c2c[nH]c3ccccc23)[C@H](c2c[nH]c3ccccc23)C1=O,> 45.3,,> 69.5,> 50.1,> 46.9,> 100,> 100,> 100,37.8,> 56.5,> 100,61.2,> 74.5,> 92.8,97.6,> 100,> 63.8,> 100,> 67.3,> 100
Cc1nc2c(O)c3c(c(O)c2nc1C)C1C=CC3CC1,17.9,,4.31,> 72.6,2.66,26.1,24.6,30.3,9.95,21.2,31.5,40.8,> 90.8,> 92.6,56.2,25.4,18.2,> 59.2,7.75,7
CC(C)(C)C1=CC(=C2C=Cc3cc(O)ccc3O2)C=C(C(C)(C)C)C1=O,3.04,,8.51,2.7,3.15,3.16,3.5,3.48,3.03,2.72,3.73,3.09,3.86,3.3,3.43,3.02,3.07,2.54,3.19,2.16
